The values below come from US8598383B2, “Pharmaceutical composition for treating or preventing degenerative and inflammatory diseases” (Neurotech Pharmaceuticals Co., Ltd., priority 2006, dated 2013).

Broadly, the inhibition is the change of the read-out against control, counted positive when it falls.

For test [1], the system named is TNF-alpha gene expression in BV2 cell line. Nature of the test: Suppressing effect on gene expression (RT-PCR), TNF-alpha. Format: cell-based. The note with it: gene expression vs LPS control, BV2, 24 hours. Here is the method:
(§1) Effects of the 2-hydroxybenzoic acid derivatives on iNOS gene expression in BV2 cell line were evaluated. 100 mm dish was inoculated with 1×10^6 cells of BV2 cell line, and treated with both LPS, inflammation-inducing material, and 1˜100 uM of the 2-hydroxybenzoic acid derivative of the present invention, together, in regular concentration interval. After 24 hours of incubation, RNA was extracted. Extracted RNA was used in reverse transcription and polymerase chain reaction, and expression patterns of TNF-alpha, IL-1beta and iNOS were compared.

In test [2] the test system is IL-1beta gene expression in BV2 cell line. Nature of the test: Suppressing effect on gene expression (RT-PCR), IL-1beta. Format: cell-based. Particulars: Mus musculus, BV-2, 24 h, gene expression vs LPS control, BV2, 24 hours. Here is the method:
as §1

Test [3] has as its system TNF-α production in BV2 cell line. Nature of the test: Suppressing effect on production of cytokine (ELISA), TNF-α. The note with it: Mus musculus, BV-2, level in medium, LPS + 100 uM of sample, 24 hours. Format: cell-based. Here is the method: Effects of the 2-hydroxybenzoic acid derivatives on production of cytokine in BV2 cell line were evaluated. 24-well plate was inoculated with 1×10^6 cells of BV2 cell line, and treated with both LPS, inflammation-inducing material, and 100 uM of sample (the 2-hydroxybenzoic acid derivative or comparative drug), together. After 24 hours of incubation, culture medium was collected. The levels of cytokines, TNF-α and IL-6, in the medium were evaluated by ELISA method.

Test [4] has as its system AGS cell line (human gastric cancer cells). Nature of the test: Cell-protecting effect in AGS cells (Helicobacter, sulindac, H2O2, ethanol; MTT). Format: cell-based. The note with it: most cell death models. Here is the method: FIG. 3 is results showing cell-protecting effect of compound 2 on gastric mucous membrane damage induced by Helicobacter. Helicobacter (43504, 5×10^6 cfu/ml) was administered to cultured AGS (human gastric cancer) cell, alone or with sample having indicated concentration. MTT analysis method was used to evaluate the survival rate of gastric mucous membrane cell 24 hours after administration.
FIG. 4 is results showing cell-protecting effect of compound 2 on gastric mucous membrane damage induced by sulindac, a NSAID. 100 uM of sulindac was administered to cultured AGS cell, alone or with sample having indicated concentration. MTT analysis method was used to evaluate the survival rate of gastric mucous membrane cell 16 hours after administration.
FIG. 5 is results showing cell-protecting effect of compound 2 on gastric mucous membrane damage induced by H2O2, oxidative stress. Cultured AGS cell was treated with 100 uM of H2O2 for 8 hours, alone or with sample having indicated concentration, and was washed with culture medium. MTT analysis method was used to evaluate the survival rate of gastric mucous membrane cell 24 hours later. […]
Cell-protecting effect of the 2-hydroxybenzoic acid derivative of the present invention was evaluated. […] After than, the absorbance was analyzed by ELISA reader at 540 nm, and the survival rate of gastric mucous membranes cell was calculated.

Test [5] concerns gastric bleeding caused by alcohol. Nature of the test: Alcoholic gastritis. Type of test: in vivo, rat. The note with it: pre-treated 1 hour before alcohol. How it is done: FIG. 9 is results showing protecting effect of compound 2 on alcoholic gastritis. A is a picture of normal rat stomach. B is a picture of rat stomach, wherein gastrointestinal bleeding was caused by oral administration of ethanol (4 ml/kg) after 250 g of rat was fasted for 24 hours. C is a picture of rat stomach, wherein rat was pre-treated with compound 21 hour before induction of gastrointestinal bleeding, and stomach was taken out 90 minutes after gastrointestinal bleeding. D is a graph quantifying the degree of stomach injury.
Effect of the 2-hydroxybenzoic acid derivative on alcoholic gastritis was evaluated. 250 g of rat was fasted for 24 hours, and alcohol was orally administered to cause gastric bleeding (B).

Test [6] concerns TNF-alpha in exudation of air pouch. Nature of the test: Zymosan air pouch inflammation model, TNF-alpha (ELISA). Particulars: over 30 mg/kg, once oral 1 hour before zymosan, 4 hours later. Format: in vivo. How it is done: FIG. 12 is results showing efficacy of compound 2 through the levels of TNF-alpha induced by zymosan, one of arthritis animal models. 1% zymosan was administered with air pouch, and compound 2 was once orally administered according to indicated dose 1 hour before administration of zymosan. The level of TNF-alpha in an exudation of air pouch was evaluated by ELISA method 4 hours later.
Anti-inflammation effect of compound 2 in arthritis model was evaluated with zymosan. 0.5 ml of 1% zymosan was administered with air pouch, and 3-300 mg/kg of compound 2 was once orally administered 1 hour before administration of zymosan. Edema, a main symptom of arthritis, and the level of cytokine were observed 4 hours later.
In general terms: An ELISA detects its analyte on a solid surface through an enzyme-linked reagent.

Test [7] has as its system brain-blood vessel barrier. Nature of the test: Brain-blood vessel barrier protection in APP/PS1 mice (Evans blue). Type of test: in vivo, mouse. The note with it: chow from 2 to 5 month-old; compound 2 25 mg/kg/day, ibuprofen 62.5 mg/kg/day. Here is the method:
Damage of brain blood vessel is well known in Alzheimer's disease. […] of 2% Evans blue dye was administered into blood vessel of 5 month-old APP/PS1 dementia mouse.

For test [8], the system named is microglia in lumbar ventral horn. In words: Microglia activation in G93A ALS mouse (TOMATO Lectin). Format: in vivo. The note with it: 5 mg/kg/day. How it is done:
G93A (Glycine ? Alanine) transgenic mouse having similar pathophysiological characteristics with ALS (amyotrophic lateral sclerosis) human patient was used to evaluate therapeutic effect of drug in ALS, one of main degenerative brain diseases.
Activation degree of microglia (a marker of inflammation in brain disease model) expressed in the lumbar ventral horn of G93A mouse were evaluated with TOMATO Lectin dye. In G93A mouse, microglia was more activated compared to the wild type mouse.

A further test has as its system TNF-α and IL-1β mRNA. In words: Cytokine mRNA expression in G93A mouse (RT-PCR). Format: in vivo. Particulars: 5 mg/kg/day in chow, 16 week-old, lumbar segments. How it is done: FIG. 30 is results showing the levels of mRNA of inflammatory cytokines (TNF-α and IL-1β), markers of inflammation, in G93A mouse. RT-PCR (Reverse Transcription-Polymerase Chain Reaction) was used.
Lumbar segments of 16 week-old G93A mice fed with general chow only, and 16 week-old G93A mice fed with chow containing 5 mg/kg/day of compound 2 were extracted and their RNA were separated. The mRNA expression degrees of TNF-α and IL-1β, inflammatory cytokines, were evaluated through RT-PCT.

As to `O=C(O)c1cc(NCCc2ccc(C(F)(F)F)cc2)ccc1O` [compound 2, 2-hydroxy-5-[2-(4-trifluoromethyl-phenyl)-ethylamino]-benzoic acid], the inhibition at 100 µM in test [1] (Mus musculus, BV-2, 24 h) turned out to be 63.2%; in [2], 75.1%; in [3], 62.3%. The “% Inhibition (in 100 uM) TNF-alpha” value in test [1] came to 63.2%. Besides, the cell-protecting effect entry is recorded as “more than 50%” in [4] (1 uM and 10 uM); “more than 70%” in test [4] (100 uM). Further, the gastric bleeding result in test [5] was “significantly reduced gastric bleeding”. In addition, the “level of TNF-alpha” value in test [6] is listed as “decreased the level of TNF-alpha more than control”. Besides, in test [7], the “protecting effect on brain-blood vessel barrier” value was “protecting effects on brain-blood vessel barrier were shown”. The “number and activation degree of microglia” value in test [8] is “decreased the number and activation degree of microglia”. Besides, in the test on TNF-α and IL-1β mRNA, the “mRNA expression of TNF-α and IL-1β” value was “effectively reduced inflammatory cytokines”.
